# Source: patent US20240208992A1, “MACROCYCLES AS CFTR MODULATORS” (Idorsia Pharmaceuticals Ltd, priority 2021, published 2024)
# Molecular target: human F508del-CFTR (Homo sapiens, UniProt P13569, DEL508-508)
# Assay: F508del-CFTR cell surface expression (corrector activity), DiscoveRx ß-galactosidase complementation chemiluminescence assay in recombinant U2OS cell line;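 further: U2OS cells co-expressing ProLink-tagged F508del-CFTR and a membrane-anchored enzyme acceptor, where more surface CFTR restores β-galactosidase activity measured by chemiluminescence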
# Conditions: for EC50: EC50, F508del-CFTR cell surface expression; for Emax: U2OS
# [1] = U2OS cells, 16h compound incubation, geomean values
# [2] = in relation to Emax of corrector lumacaftor (=100%), arithmetic mean values
# [3] = U2OS cell line, 16h compound incubation, geomean values
# [4] = in relation to the Emax of the corrector lumacaftor (=100%), U2OS cell line, 16h compound incubation, arithmetic mean values
# Chain of human F508del-CFTR (P13569 with tags, fused parts or gaps DEL508-508): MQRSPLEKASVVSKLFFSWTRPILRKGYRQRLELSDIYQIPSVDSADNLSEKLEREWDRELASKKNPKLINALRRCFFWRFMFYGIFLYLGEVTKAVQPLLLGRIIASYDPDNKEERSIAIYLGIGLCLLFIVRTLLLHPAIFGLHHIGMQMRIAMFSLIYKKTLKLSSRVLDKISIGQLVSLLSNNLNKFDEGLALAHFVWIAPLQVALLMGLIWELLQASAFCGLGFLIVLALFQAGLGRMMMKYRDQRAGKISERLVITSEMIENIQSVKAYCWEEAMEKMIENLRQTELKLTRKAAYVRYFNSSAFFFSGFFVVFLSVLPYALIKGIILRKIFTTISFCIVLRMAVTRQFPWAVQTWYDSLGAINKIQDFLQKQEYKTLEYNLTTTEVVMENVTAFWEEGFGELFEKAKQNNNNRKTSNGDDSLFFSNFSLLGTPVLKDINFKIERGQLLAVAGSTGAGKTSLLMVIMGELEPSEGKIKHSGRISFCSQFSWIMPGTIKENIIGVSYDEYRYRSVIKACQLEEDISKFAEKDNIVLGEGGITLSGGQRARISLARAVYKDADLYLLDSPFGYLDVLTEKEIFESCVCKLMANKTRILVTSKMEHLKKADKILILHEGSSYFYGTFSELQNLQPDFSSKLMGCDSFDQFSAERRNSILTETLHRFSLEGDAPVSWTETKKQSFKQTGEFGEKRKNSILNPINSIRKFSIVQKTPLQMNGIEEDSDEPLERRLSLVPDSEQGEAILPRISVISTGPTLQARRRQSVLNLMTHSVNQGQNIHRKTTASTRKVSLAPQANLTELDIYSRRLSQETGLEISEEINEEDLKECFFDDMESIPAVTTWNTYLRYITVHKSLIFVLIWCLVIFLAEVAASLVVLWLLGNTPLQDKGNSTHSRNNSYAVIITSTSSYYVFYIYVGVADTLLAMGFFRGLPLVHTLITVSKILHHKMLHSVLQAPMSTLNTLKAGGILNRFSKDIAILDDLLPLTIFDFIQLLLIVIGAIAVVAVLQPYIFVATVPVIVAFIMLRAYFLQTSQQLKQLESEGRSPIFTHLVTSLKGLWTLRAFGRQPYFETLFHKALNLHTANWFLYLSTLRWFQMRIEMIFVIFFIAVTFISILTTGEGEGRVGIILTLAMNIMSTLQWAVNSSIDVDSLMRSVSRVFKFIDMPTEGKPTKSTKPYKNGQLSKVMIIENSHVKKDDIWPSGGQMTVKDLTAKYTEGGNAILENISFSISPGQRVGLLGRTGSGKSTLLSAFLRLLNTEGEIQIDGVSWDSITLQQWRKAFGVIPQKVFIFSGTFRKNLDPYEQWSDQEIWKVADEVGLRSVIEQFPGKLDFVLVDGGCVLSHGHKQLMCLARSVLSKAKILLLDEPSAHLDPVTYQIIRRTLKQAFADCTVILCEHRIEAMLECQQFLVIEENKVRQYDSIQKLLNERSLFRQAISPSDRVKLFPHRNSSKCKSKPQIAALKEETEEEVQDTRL
smiles,measurement,setting,value
"CC(C)C[C@H]1C(=O)N2CCCC[C@H]2C(=O)N[C@H](Cc2ccccc2)COc2cnc3c(F)cccc3c2C(=O)N[C@H](C(=O)NCCc2cc(C3CC3)on2)CC(=O)N1C [Example 497, (9S,13S,19aS,22R)-22-benzyl-N-(2-(5-cyclopropylisoxazol-3-yl)ethyl)-3-fluoro-13-isobutyl-12-methyl-7,11,14,20-tetraoxo-7,8,9,10,11,12,13,14,17,18,19,19a,20,21,22,23-hexadecahydro-16H-pyrido[2′,1′:6,7][1]oxa[4,7,10,14]tetraazacycloheptadecino[17,16-c]quinoline-9-carboxamide]",EC50,[1],535 nM
same,Emax,[2],171%
"CC(C)C[C@H]1C(=O)N2CCCC[C@@H]2C(=O)N[C@H](Cc2ccccc2)COc2ccc3ncccc3c2C(=O)N[C@H](C(=O)NCCc2nc(C3CC3)no2)CC(=O)N1C [Example 505, (9S,13S,19aR,22R)-22-benzyl-N-(2-(3-cyclopropyl-1,2,4-oxadiazol-5-yl)ethyl)-13-isobutyl-12-methyl-7,11,14,20-tetraoxo-7,8,9,10,11,12,13,14,17,18,19,19a,20,21,22,23-hexadecahydro-16H-pyrido[2′,1′:6,7][1]oxa[4,7,10,14]tetraazacycloheptadecino[16,17-f]quinoline-9-carboxamide]",EC50,[1],229 nM
same,Emax,[2],330%
"CN1C(=O)C[C@@H](C(=O)NCCc2ccc3c(c2)OCO3)NC(=O)c2c(ccc3ccccc23)OC[C@@H](Cc2ccccc2)NC(=O)CN(C[C@H]2CCCCO2)C(=O)[C@@H]1CC1CCCCC1 (racemic) [Example 287, (3RS,7S,13R)-N-(2-(benzo[d][1,3]dioxol-5-yl)ethyl)-13-benzyl-7-(cyclohexylmethyl)-6-methyl-1,5,8,11-tetraoxo-9-(((R)-tetrahydro-2H-pyran-2-yl)methyl)-1,2,3,4,5,6,7,8,9,10,11,12,13,14-tetradecahydronaphtho[1,2-p][1]oxa[4,7,10,14]tetraazacycloheptadecine-3-carboxamide]",EC50,[3],207 nM
same,Emax,[4],154%
"CC(C)C[C@H]1C(=O)N2CCOC[C@@H]2C(=O)N[C@H](Cc2ccccc2)COc2cnc3ccccc3c2C(=O)N[C@H](C(=O)NCCc2cc(C3CC3)on2)CC(=O)N1C [Example 106, (9S,13S,19aR,22R)-22-benzyl-N-(2-(5-cyclopropylisoxazol-3-yl)ethyl)-13-isobutyl-12-methyl-7,11,14,20-tetraoxo-7,8,9,10,11,12,13,14,16,17,19,19a,20,21,22,23-hexadecahydro-[1,4]oxazino[3′,4′:6,7][1]oxa[4,7,10,14]tetraazacycloheptadecino[17,16-c]quinoline-9-carboxamide]",EC50,[3],864 nM
same,Emax,[4],308%
"COCCN1C(=O)[C@H](CC(C)C)N(C)C(=O)C[C@@H](C(=O)NCCc2cccc(OC)c2)NC(=O)c2c(ccc3ccccc23)OC[C@@H](Cc2ccccc2)NC(=O)C12CC2 [Example 457, (3′S,7′S,13′R)-13′-benzyl-7′-isobutyl-9′-(2-methoxyethyl)-N-(3-methoxyphenethyl)-6′-methyl-1′,5′,8′,11′-tetraoxo-2′,3′,4′,5′,6′,7′,8′,9′,11′,12′,13′,14′-dodecahydro-1′H-spiro[cyclopropane-1,10′-naphtho[1,2-p][1]oxa[4,7,10,14]tetraazacycloheptadecine]-3′-carboxamide]",EC50,[1],326 nM
same,Emax,[2],144%
"[2H]C([2H])([2H])Oc1nc(C)cc2c1C(=O)N[C@H](C(=O)NCCc1noc(C3CC3)n1)CC(=O)N(C)[C@@H](CC(C)C)C(=O)N1CCCC[C@@H]1C(=O)N[C@H](Cc1ccccc1)CO2 [Example 666, (7S,11S,17aR,20R)-20-benzyl-N-(2-(5-cyclopropyl-1,2,4-oxadiazol-3-yl)ethyl)-11-isobutyl-4-(methoxy-d3)-2,10-dimethyl-5,9,12,18-tetraoxo-5,6,7,8,9,10,11,12,15,16,17,17a,18,19,20,21-hexadecahydro-14H-dipyrido[2,1-f:3′,4′-p][1]oxa[4,7,10,14]tetraazacycloheptadecine-7-carboxamide]",EC50,[1],484 nM
same,Emax,[2],311%
"COc1cccc(CCNC(=O)[C@@H]2CC(=O)N(C)[C@@H](CC(C)C)C(=O)N3CCN(S(=O)(=O)CCCN4CCOCC4)C[C@@H]3C(=O)N[C@H](Cc3ccccc3)COc3ccc4ccccc4c3C(=O)N2)c1 [Example 730, (4aR,7R,18S,22S)-7-benzyl-22-isobutyl-N-(3-methoxyphenethyl)-21-methyl-3-((3-morpholinopropyl)sulfonyl)-5,16,20,23-tetraoxo-2,3,4,4a,5,6,7,8,16,17,18,19,20,21,22,23-hexadecahydro-1H-naphtho[1,2-p]pyrazino[2,1-f][1]oxa[4,7,10,14]tetraazacycloheptadecine-18-carboxamide]",EC50,[1],593 nM
same,Emax,[2],248%
"Cc1cc2ccc3c(c2o1)C(=O)N[C@H](C(=O)NCCc1noc(C2CC2)n1)CC(=O)N(C)[C@@H](CC(C)C)C(=O)N(C)C1(CC1)C(=O)N[C@H](Cc1ccccc1)CO3 [Example 553, (8R,14S,18S)-8-benzyl-N-(2-(5-cyclopropyl-1,2,4-oxadiazol-3-yl)ethyl)-14-isobutyl-2,12,15-trimethyl-10,13,16,20-tetraoxo-7,8,9,10,13,14,15,16,17,18,19,20-dodecahydro-12H-spiro[benzofuro[7,6-p][1]oxa[4,7,10,14]tetraazacycloheptadecine-11,1′-cyclopropane]-18-carboxamide]",EC50,[1],287 nM
same,Emax,[2],304%
"COc1cccc(CCNC(=O)[C@@H]2CC(=O)N(C)[C@@H](CC(C)C)C(=O)N(C)C3(CC3)C(=O)N[C@H](Cc3ccccc3)COc3ccc4ncccc4c3C(=O)N2)c1 [Example 460, (3′S,7′S,13′R)-13′-benzyl-7′-isobutyl-N-(3-methoxyphenethyl)-6′,9′-dimethyl-1′,5′,8′,11′-tetraoxo-2′,3′,4′,5′,6′,7′,8′,9′,11′,12′,13′,14′-dodecahydro-1′H-spiro[cyclopropane-1,10′-[1]oxa[4,7,10,14]tetraazacycloheptadecino[16,17-f]quinoline]-3′-carboxamide]",EC50,[1],310 nM
same,Emax,[2],398%
"COc1ccc2c(c1)C(=O)N[C@H](C(=O)NCCc1ccc3c(c1)OCO3)CC(=O)N(C)[C@@H](CC(C)C)C(=O)N(CCC1CCCCC1)CC(=O)N[C@H](Cc1ccccc1)CO2 [Example 248, (3R,9S,13S)-N-(2-(benzo[d][1,3]dioxol-5-yl)ethyl)-3-benzyl-7-(2-cyclohexylethyl)-9-isobutyl-17-methoxy-10-methyl-5,8,11,15-tetraoxo-2,3,4,5,6,7,8,9,10,11,12,13,14,15-tetradecahydrobenzo[p][1]oxa[4,7,10,14]tetraazacycloheptadecine-13-carboxamide]",EC50,[3],106 nM
same,Emax,[4],191%
"CC(C)C[C@H]1C(=O)N(C)C2(CC2)C(=O)N[C@H](Cc2ccccc2)COc2cnc3ccc(F)cc3c2C(=O)N[C@H](C(=O)NCCc2cccc(-c3ncccn3)c2)CC(=O)N1C [Example 138, (3′S,7′S,13′R)-13′-benzyl-20′-fluoro-7′-isobutyl-6′,9′-dimethyl-1′,5′,8′,11′-tetraoxo-N-(3-(pyrimidin-2-yl)phenethyl)-2′,3′,4′,5′,6′,7′,8′,9′,11′,12′,13′,14′-dodecahydro-1′H-spiro[cyclopropane-1,10′-[1]oxa[4,7,10,14]tetraazacycloheptadecino[17,16-c]quinoline]-3′-carboxamide]",EC50,[3],538 nM
same,Emax,[4],292%
"Cc1cc(CCNC(=O)[C@@H]2CC(=O)N(C)[C@@H](CC(C)C)C(=O)N(C)[C@H](CC(F)F)C(=O)N[C@H](Cc3ccccc3)COc3cnc4ccccc4c3C(=O)N2)on1 [Example 699, (3S,7S,10R,13R)-13-benzyl-10-(2,2-difluoroethyl)-7-isobutyl-6,9-dimethyl-N-(2-(3-methylisoxazol-5-yl)ethyl)-1,5,8,11-tetraoxo-1,2,3,4,5,6,7,8,9,10,11,12,13,14-tetradecahydro-[1]oxa[4,7,10,14]tetraazacycloheptadecino[17,16-c]quinoline-3-carboxamide]",EC50,[1],299 nM
same,Emax,[2],338%
"CC(C)C[C@H]1C(=O)N2CCCC[C@@H]2C(=O)N[C@H](Cc2ccccc2)COc2ccc3ncccc3c2C(=O)N[C@H](C(=O)NCCc2cc(C3CC3)on2)CC(=O)N1C [Example 504, (9S,13S,19aR,22R)-22-benzyl-N-(2-(5-cyclopropylisoxazol-3-yl)ethyl)-13-isobutyl-12-methyl-7,11,14,20-tetraoxo-7,8,9,10,11,12,13,14,17,18,19,19a,20,21,22,23-hexadecahydro-16H-pyrido[2′,1′:6,7][1]oxa[4,7,10,14]tetraazacycloheptadecino[16,17-f]quinoline-9-carboxamide]",EC50,[1],149 nM
same,Emax,[2],298%
"CCOCC[C@@H]1C(=O)N[C@H](Cc2ccccc2)COc2ccc3cnc(C)cc3c2C(=O)N[C@H](C(=O)NCCc2nc(OC)no2)CC(=O)N(C)[C@@H](CC(C)C)C(=O)N1C [Example 914, (3S,7S,10R,13R)-13-benzyl-10-(2-ethoxyethyl)-7-isobutyl-N-(2-(3-methoxy-1,2,4-oxadiazol-5-yl)ethyl)-6,9,20-trimethyl-1,5,8,11-tetraoxo-1,2,3,4,5,6,7,8,9,10,11,12,13,14-tetradecahydro-[1]oxa[4,7,10,14]tetraazacycloheptadecino[16,17-f]isoquinoline-3-carboxamide]",EC50,"U2OS cells, 16h compound incubation, geomean of several measurements",368 nM
same,Emax,"in relation to the Emax of the corrector lumacaftor (=100%), U2OS cells, 16h compound incubation, arithmetic mean",358%
"COc1cc(CCNC(=O)[C@@H]2CC(=O)N(C)[C@@H](CC(C)C)C(=O)N(CCC3CCCCC3)CC(=O)N[C@H](Cc3ccccc3)COc3cccc(OC)c3C(=O)N2)ccc1N [Example 218, (3R,9S,13S)-N-(4-amino-3-methoxyphenethyl)-3-benzyl-7-(2-cyclohexylethyl)-9-isobutyl-16-methoxy-10-methyl-5,8,11,15-tetraoxo-2,3,4,5,6,7,8,9,10,11,12,13,14,15-tetradecahydrobenzo[p][1]oxa[4,7,10,14]tetraazacycloheptadecine-13-carboxamide]",EC50,[3],353 nM
same,Emax,[4],143%
